Assay type in all cases: in vitro ADME
One data set addresses T1, CYP2C9 (Homo sapiens, UniProt P11712).
T1 construct: human liver microsomes (BD Gentest); tissue BD Gentest; host or cells: human liver microsomes
Nature of the data set: CYP2C9 inhibition assay. Particulars: human liver microsomes, substrate Luciferin-H; for inhibition at 25 min, 2.2 µM: pH 7.4, probe Luciferin-H (100 μM final), read-out: CYP2C9 % inh @ 2.2 μM. How it is done:
(§1) Stock solutions of test compounds were assayed in 96-well format for their ability to inhibit CYP2C9, CYP2D6, or CYP3A4 mediated metabolism of test substrates. Luciferin-H was used as the substrate for CYP2C9; 3-[2-(N,N-diethyl-N-methylammonium)ethyl]-7-methoxy-4-methylcoumarin (AMMC) was used as the substrate for CYP2D6; 7-benzyloxyquiniline (BZQ) was used as the substrate for CYP3A4. For each subtype, positive controls (sulphaphenazole in the case of CYP2C9; quinidine in the case of CYP2D6, ketoconazole in the case of CYP3A4) were used to validate assay results run in duplicate.
(§2) Pre-Incubation Mixture Preparation for CYP2C9 and CYP2D6: A pre-incubation mixture was prepared by combining 100 mM phosphate buffer (9.12 mL; pH 7.4), human liver microsomes (BD Gentest, 240 itt; final concentration: 0.4 mg/mL), and 10 mM nicotinamide adenine dinucleotide phosphate in 65.4 mM MgCl2 hexahydrate (120 μL; final concentration: 125 μM and 818 μM, respectively). To this was mixture is added a ‘regeneration’ mixture (120 μL) of 333 mM glucose-6-phosphate and 40 U/mL glucose-6-phosphate dehydrogenase in 5 mM sodium citrate (final concentration: 4 mM, 0.5 U/mL, and 0.06 mM, respectively).
Substrate Mixture Preparation for CYP2C9: To a solution of 25 mM phosphate buffer, (2.16 mL, pH 7.4) was added 5 mM Luciferin-H (Promega P450 Glo Assay V8792, 240 μL; final solution concentration 0.5 mM, final assay concentration 100 μM).
CYP2C9 Inhibiton Assay: To each well in the assay plate containing varying concentrations of test compound or control compound in DMSO (10 μL) Pre-Incubation Mixture (40 itt) was added to the wells and the assay plate was pre-incubated for 10 minutes at 37° C., with shaking or rocking. CYP2C9 Substrate Mixture (10 μL) was added to all wells and the assay plate was incubated for an additional 25 minutes at 37° C., with shaking or rocking. Final DMSO concentration was 1%. Luciferin-H detection reagent (Promega kit V8792, 50 μL) was added to all wells. The plate was then vortexed at ambient temperature for between 20 minutes and 2 hours, and the luminescence of each well was then read and recorded.
A general note: Microsomes from liver hold many membrane-bound enzymes, among them those of drug oxidation.

For another data set, the target named is T2, CYP2D6 (Homo sapiens, UniProt P10635).
T2 construct: human liver microsomes (BD Gentest); tissue BD Gentest; host or cells: human liver microsomes
T2 sequence (P10635 whole entry): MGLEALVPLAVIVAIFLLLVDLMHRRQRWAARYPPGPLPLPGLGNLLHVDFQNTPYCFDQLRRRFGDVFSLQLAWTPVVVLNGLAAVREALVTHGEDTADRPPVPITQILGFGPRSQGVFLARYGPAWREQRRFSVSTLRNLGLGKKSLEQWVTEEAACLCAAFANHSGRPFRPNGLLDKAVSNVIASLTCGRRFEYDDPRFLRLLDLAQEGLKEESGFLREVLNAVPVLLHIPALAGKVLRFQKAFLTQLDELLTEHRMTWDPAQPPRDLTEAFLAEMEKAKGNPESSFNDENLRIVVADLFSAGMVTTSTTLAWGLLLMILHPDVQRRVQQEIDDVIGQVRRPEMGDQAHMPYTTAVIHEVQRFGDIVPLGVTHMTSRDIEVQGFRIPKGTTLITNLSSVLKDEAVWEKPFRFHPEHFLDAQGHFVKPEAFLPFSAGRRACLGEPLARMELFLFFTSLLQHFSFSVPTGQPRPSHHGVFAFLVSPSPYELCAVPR
The experiment in a line: in vitro. The following applies: microsomes; for inhibition at 25 min, 2.2 µM: human, pH 7.4. The method, then:
as §1, §2
Substrate Mixture Preparation for CYP2D6: To a solution of 100 mM phosphate buffer, (2.80 mL, pH 7.4) was added 10 mM AMMC in acetonitrile (14 itt; final solution concentration 0.05 mM, final assay concentration 10 μM).
(§3) CYP2D6 Inhibiton Assay: To each well in the assay plate containing varying concentrations of test compound or control compound in DMSO (10 μL), Pre-Incubation Mixture (40 μL) was added to the wells and the assay plate was pre-incubated for 10 minutes at 37° C., with shaking or rocking. A pre-read of each well was performed at 390 nm and 460 nm extinction/emission. CYP2D6 Substrate Mixture (10 μL) was added to all wells and the assay plate was incubated for an additional […] at 37° C., with shaking or rocking. Final DMSO concentration was 1%. A post-read of each well was then performed at 390 nm and 460 nm extinction/emission.

The target of a further data set is T3, CYP3A4 (Homo sapiens, UniProt P08684).
T3 construct: human liver microsomes (BD Gentest, 450 μL; final concentration: 0.4 mg/mL); tissue BD Gentest; host or cells: human liver microsomes
T3 sequence (P08684 whole entry): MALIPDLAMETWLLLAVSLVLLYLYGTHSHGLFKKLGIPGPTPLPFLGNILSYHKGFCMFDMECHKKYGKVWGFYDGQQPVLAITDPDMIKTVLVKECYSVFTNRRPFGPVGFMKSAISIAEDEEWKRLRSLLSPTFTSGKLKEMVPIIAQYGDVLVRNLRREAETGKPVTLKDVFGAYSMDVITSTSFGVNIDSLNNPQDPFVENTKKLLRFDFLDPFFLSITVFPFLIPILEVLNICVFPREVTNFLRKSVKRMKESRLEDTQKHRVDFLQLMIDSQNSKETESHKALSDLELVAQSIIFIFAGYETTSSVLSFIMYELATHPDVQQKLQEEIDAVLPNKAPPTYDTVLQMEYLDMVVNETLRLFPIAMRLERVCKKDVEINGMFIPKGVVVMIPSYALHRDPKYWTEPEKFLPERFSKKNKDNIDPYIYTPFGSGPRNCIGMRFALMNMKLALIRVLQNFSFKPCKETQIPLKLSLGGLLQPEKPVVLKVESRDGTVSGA
Nature of the data set: CYP3A4 inhibition assay. The following applies: human liver microsomes, substrate BZQ; for inhibition at 25 min, 2.2 µM: pH 7.4, probe 7-benzyloxyquiniline (BZQ), 50 μM final, read-out: CYP3A4 % inh @ 2.2 μM. How it is done: Luciferin-H was used as the substrate for CYP2C9; 3-[2-(N,N-diethyl-N-methylammonium)ethyl]-7-methoxy-4-methylcoumarin (AMMC) was used as the substrate for CYP2D6; 7-benzyloxyquiniline (BZQ) was used as the substrate for CYP3A4.
Pre-Incubation Mixture Preparation for CYP3A4: A pre-incubation mixture was prepared by combining 100 mM phosphate buffer (19.35 mL; pH 7.4), human liver microsomes (BD Gentest, 450 μL; final concentration: 0.4 mg/mL), and 10 mM nicotinamide adenine dinucleotide phosphate in 65.4 mM MgCl2 hexahydrate (225 μL; final concentration: 100 μM and 654 μM, respectively). To this was mixture was added a ‘regeneration’ mixture (225 μL) of 333 mM glucose-6-phosphate and 40 U/mL glucose-6-phosphate dehydrogenase in 5 mM sodium citrate (final concentration: 3.3 mM, 0.4 U/mL, and 0.05 mM, respectively).
Substrate Mixture Preparation for CYP3A4: To a solution of 100 mM phosphate buffer, (2.36 mL, pH 7.4) was added 30 mM BZQ in acetonitrile (40 μL; final solution concentration 0.5 mM, final assay concentration 50 μM).
as §3, with “CYP3A4” for “CYP2D6”, “μL), CYP3A4” for “μL),”, “(90” for “(40”, “405” for “390”, “535” for “460”

T1 sequence (P11712 whole entry): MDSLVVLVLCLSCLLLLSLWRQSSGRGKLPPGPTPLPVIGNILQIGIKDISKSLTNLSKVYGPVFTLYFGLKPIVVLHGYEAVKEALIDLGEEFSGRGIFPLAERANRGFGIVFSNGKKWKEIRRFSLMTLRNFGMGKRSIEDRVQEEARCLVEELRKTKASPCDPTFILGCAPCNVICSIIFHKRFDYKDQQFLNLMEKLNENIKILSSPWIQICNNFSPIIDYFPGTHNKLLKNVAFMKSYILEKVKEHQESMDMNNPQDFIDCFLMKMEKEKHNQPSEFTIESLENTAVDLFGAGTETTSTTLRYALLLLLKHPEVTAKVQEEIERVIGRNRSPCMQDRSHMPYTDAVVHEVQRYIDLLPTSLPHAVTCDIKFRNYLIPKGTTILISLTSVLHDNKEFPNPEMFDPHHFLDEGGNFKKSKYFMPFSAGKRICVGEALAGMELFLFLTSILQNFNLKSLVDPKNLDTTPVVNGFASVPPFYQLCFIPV

Regarding `Cc1cc2c(NC(=O)N[C@@H]3CC(CF)(CF)Oc4c(OC(F)(F)F)cccc43)cccc2cn1` [Example 87, N-[(4R)-2,2-bis(fluoromethyl)-8-(trifluoromethoxy)-3,4-dihydro-2H-chromen-4-yl]-N′-(3-methylisoquinolin-5-yl)urea], the inhibition at 25 min, 2.2 µM at CYP2C9 was found to be 25%; against CYP2D6 it was 9%; on CYP3A4, 0%.
In the same order, the values of `Cc1cc2c(NC(=O)N[C@@H]3CC(CF)(CF)Oc4c(Cl)cccc43)cccc2cn1` [Example 91, N-[(4R)-8-chloro-2,2-bis(fluoromethyl)-3,4-dihydro-2H-chromen-4-yl]-N′-(3-methylisoquinolin-5-yl)urea] are 13%, 19% and 3.8%.
In the same order, the values of `Cc1cc2c(NC(=O)N[C@@H]3CC(C)(C)Oc4c(OC(F)(F)F)cccc43)cccc2cn1` [Example 94, N-[(4R)-2,2-dimethyl-8-(trifluoromethoxy)-3,4-dihydro-2H-chromen-4-yl]-N′-(3-methylisoquinolin-5-yl)urea] are 5.2%, 16% and 0%.
For `Cc1cc2c(NC(=O)N[C@@H]3CC(C)(C)Oc4cc(F)ccc43)cccc2cn1` [Example 95, N-[(4R)-7-fluoro-2,2-dimethyl-3,4-dihydro-2H-chromen-4-yl]-N′-(3-methylisoquinolin-5-yl)urea], the figures for the inhibition at 25 min, 2.2 µM on CYP2C9, against CYP2D6 and on CYP3A4 were 0%, 3.5% and 0%, respectively.
As for `Cc1cc2c(NC(=O)N[C@@H]3CC(CF)(CF)Oc4cc(F)ccc43)cccc2cn1` [Example 96, N-[(4R)-7-fluoro-2,2-bis(fluoromethyl)-3,4-dihydro-2H-chromen-4-yl]-N′-(3-methylisoquinolin-5-yl)urea], the inhibition at 25 min, 2.2 µM came to 4.1% at CYP2C9, 7.9% at CYP2D6 and 0% at CYP3A4.
In the same order, the values of `Cc1cc2c(NC(=O)N[C@@H]3CC(C)(C)Oc4cc(Cl)ccc43)cccc2cn1` [Example 97, N-[(4R)-7-chloro-2,2-dimethyl-3,4-dihydro-2H-chromen-4-yl]-N′-(3-methylisoquinolin-5-yl)urea] are 17%, 19% and 0%.
The like results for `Cc1cc2c(NC(=O)N[C@@H]3CC(C)(C)Oc4c3ccc(F)c4Cl)cccc2cn1` [Example 110, N-[(4R)-8-chloro-7-fluoro-2,2-dimethyl-3,4-dihydro-2H-chromen-4-yl]-N′-(3-methylisoquinolin-5-yl)urea] were, in that order, 13%, 1.4% and 0.25%.
Take `Cc1cc2c(NC(=O)N[C@@H]3CC(C)(C)Oc4c3ccc(F)c4F)cccc2cn1` [Example 113, N-[(4R)-7,8-difluoro-2,2-dimethyl-3,4-dihydro-2H-chromen-4-yl]-N′-(3-methylisoquinolin-5-yl)urea]: the figures for the inhibition at 25 min, 2.2 µM at CYP2C9, against CYP2D6 and at CYP3A4 were 7.6%, 0% and 9%, respectively.
Regarding `Cc1cc2c(NC(=O)N[C@@H]3CC(C)(C)Oc4cc(C(F)(F)F)ccc43)cccc2cn1` [Example 118, N-[(4R)-2,2-dimethyl-7-(trifluoromethyl)-3,4-dihydro-2H-chromen-4-yl]-N′-(3-methylisoquinolin-5-yl)urea], the inhibition at 25 min, 2.2 µM came out at 7.8% on CYP2C9, 21% at CYP2D6 and 0% at CYP3A4.
In the same order, the values of `Cc1cc2c(NC(=O)N[C@@H]3CC(C)(C)Oc4c(F)cccc43)cccc2cn1` [Example 119, N-[(4R)-8-fluoro-2,2-dimethyl-3,4-dihydro-2H-chromen-4-yl]-N′-(3-methylisoquinolin-5-yl)urea] are 2.1%, 8.7% and 0%.
Take `Cc1cc2c(NC(=O)N[C@@H]3CC(CF)(CF)Oc4c(F)cc(F)cc43)cccc2cn1` [Example 120, N-[(4R)-6,8-difluoro-2,2-bis(fluoromethyl)-3,4-dihydro-2H-chromen-4-yl]-N′-(3-methylisoquinolin-5-yl)urea]: the inhibition at 25 min, 2.2 µM on CYP2C9 worked out at 11%; at CYP2D6, 6.2%; on CYP3A4 it was 25%.
As for `Cc1cc2c(NC(=O)N[C@@H]3CC(C)(C)Oc4cc(F)ccc43)c(F)ccc2cn1` [Example 123, N-[(4R)-7-fluoro-2,2-dimethyl-3,4-dihydro-2H-chromen-4-yl]-N′-(6-fluoro-3-methylisoquinolin-5-yl)urea], the inhibition at 25 min, 2.2 µM at CYP2C9 was found to be 19%; against CYP2D6, 42%; at CYP3A4, 49%.
Turning to `Cc1cc2c(NC(=O)N[C@@H]3C[C@](C)(CF)Oc4c(F)cccc43)cccc2cn1` [Example 126, N-[(2R,4R)-8-fluoro-2-(fluoromethyl)-2-methyl-3,4-dihydro-2H-chromen-4-yl]-N′-(3-methylisoquinolin-5-yl)urea], the inhibition at 25 min, 2.2 µM at CYP2C9 came out at 0%; on CYP2D6, 0%; at CYP3A4, 11%.
In the case of `Cc1cc2c(NC(=O)N[C@@H]3C[C@@](C)(CF)Oc4c(F)cccc43)cccc2cn1` [Example 128, N-[(2S,4R)-8-fluoro-2-(fluoromethyl)-2-methyl-3,4-dihydro-2H-chromen-4-yl]-N′-(3-methylisoquinolin-5-yl)urea], the results for the inhibition at 25 min, 2.2 µM at CYP2C9, at CYP2D6 and at CYP3A4 were 9%, 0.23% and 0%, respectively.
In the case of “N-[(4R)-2,2-diethyl-6-fluoro-3,4-dihydro-2H-chromen-4-yl]-N-(3-methylisoquinolin-5-yl)urea [Example 56]”, on CYP2C9, the “CYP2C9 % inh @ 2.2 μM” value amounted to 20%. Further, the “CYP2D6 % inh @ 2.2 μM)” value on CYP2D6 amounted to 14%. Besides, the “CYP3A4 % inh @ 2.2 μM” value at CYP3A4 came out at 17%.
Consider “N-[(4R)-2,2-diethyl-8-fluoro-3,4-dihydro-2H-chromen-4-yl]-N-(3-methylisoquinolin-5-yl)urea [Example 62]”, for which the “CYP2C9 % inh @ 2.2 μM” value at CYP2C9 amounted to 22%. Moreover, the “CYP2D6 % inh @ 2.2 μM)” value at CYP2D6 was 9.1%. The “CYP3A4 % inh @ 2.2 μM” value at CYP3A4 was 0%.

These data come from patent US8604053B2, “TRPV1 antagonists” (AbbVie Inc., priority 2008, dated 2013).
